Experimental data from US8183351B2, “Avermectin derivatives” (Bayer Cropscience AG, priority 2006, dated 2012).

Experiments:
Type in all cases: in vivo
Lucilia cuprina larvae = experiment: Lucilia cuprina test (LUCICU); conditions: treated horsemeat
Method: Lucilia cuprina Test (LUCICU)
Description for Examples A and B
(§1) • Solvent: Dimethyl sulphoxide
To produce a suitable preparation of active compound, 1 part by weight of active compound is mixed with the stated amount of water and the concentrate is diluted with water to the desired concentration.
Containers containing horsemeat treated with the active compound preparation of the desired concentration are populated with Lucilia cuprina larvae.
After the desired period of time, the kill in % is determined. 100% means that all larvae have been killed; 0% means that none of the larvae have been killed.
(§2) In this test, for example, the following compounds of the preparation examples show good activity: see table

[1] = test system: larvae of the mustard beetle (Phaedon cochleariae); experiment: Phaedon test (PHAECO spray treatment); conditions: 4 ppm active compound, sprayed Chinese cabbage discs
Method: Phaedon Test (PHAECO Spray Treatment)
• Solvents: 78 parts by weight of acetone • 1.5 parts by weight of dimethylformamide • Emulsifier: 0.5 part by weight of alkylaryl polyglyycol ether
After the desired period of time, the effect in % is determined. 100% means that all beetle larvae have been killed; 0% means that none of the beetle larvae have been killed.

adult Musca domestica = experiment: Musca domestica test (MUSCDO); conditions: Example C, treated sponge
Method: Musca domestica Test (MUSCDO)
as §1
To produce a suitable preparation of active compound, 1 part by weight of active compound is mixed with the stated amount of water, and the concentrate is diluted with water to the desired concentration.
Containers containing a sponge treated with the preparation of active compound of the desired concentration are populated with adult Musca domestica.
After the desired period of time, the kill in % is determined. 100% means that all flies have been killed; 0% means that none of the flies have been killed.
as §2

[2] = Example A, 0.8 ppm active compound
[3] = Example B, 0.16 ppm active compound

Structure (SMILES): CCC(C)C1OC2(C=CC1C)CC1CC(CC=C(C)C(OC3CC(OC)C(OC(=O)C(C)NC(C)=O)C(C)O3)C(C)C=CC=C3COC4C(O)C(C)=CC(C(=O)O1)C34O)O2 (mixture of isomers) [Example 54]
- Kill rate in % after 2 days (Lucilia cuprina larvae; [2]): 80%
- Kill rate in % after 7 days ([1]; Example G): 100%

Structure (SMILES): CCC(C)C1OC2(C=CC1C)CC1CC(CC=C(C)C(OC3CC(OC)C(OC(=O)C(C)n4nc(OC)n(C)c4=O)C(C)O3)C(C)C=CC=C3COC4C(O)C(C)=CC(C(=O)O1)C34O)O2 (mixture of isomers) [Example 100]
- Kill rate in % after 2 days (Lucilia cuprina larvae; [2]): 100%

Structure (SMILES): CC[C@H](C)[C@H]1OC2(C=C[C@@H]1C)C[C@@H]1C[C@@H](C/C=C(\C)[C@@H](OC3CC(OC)C(OC(=O)C4CC4)C(C)O3)[C@@H](C)/C=C/C=C3\CO[C@@H]4[C@H](O)C(C)=CC(C(=O)O1)[C@]34O)O2 (stereo partly shown) [Example 1, 4′-O-(cyclopropylcarbonyl)-avermectin B1 monosaccharide]
- Kill rate in % after 2 days (Lucilia cuprina larvae; [2]): 100%
- Kill rate in % after 7 days ([1]; Example D): 90%

Structure (SMILES): CC[C@H](C)[C@H]1OC2(C=C[C@@H]1C)C[C@@H]1C[C@@H](C/C=C(\C)[C@@H](OC3CC(OC)C(OC(=O)CC(C)C)C(C)O3)[C@@H](C)/C=C/C=C3\CO[C@@H]4[C@H](O)C(C)=CC(C(=O)O1)[C@]34O)O2 (stereo partly shown) [Example 4]
- Kill rate in % after 2 days (Lucilia cuprina larvae; [2]): 100%

Structure (SMILES): CC[C@H](C)[C@H]1OC2(C=C[C@@H]1C)C[C@@H]1C[C@@H](C/C=C(\C)[C@@H](OC3CC(OC)C(OC(=O)C(C)(C)C)C(C)O3)[C@@H](C)/C=C/C=C3\CO[C@@H]4[C@H](O)C(C)=CC(C(=O)O1)[C@]34O)O2 (stereo partly shown) [Example 5]
- Kill rate in % after 2 days (Lucilia cuprina larvae; [2]): 100%

Structure (SMILES): CCC(=O)OC1C(C)OC(O[C@@H]2/C(C)=C/C[C@@H]3C[C@@H](CC4(C=C[C@H](C)[C@@H]([C@@H](C)CC)O4)O3)OC(=O)C3C=C(C)[C@@H](O)[C@H]4OC/C(=C\C=C\[C@@H]2C)[C@@]34O)CC1OC (stereo partly shown) [Example 6]
- Kill rate in % after 2 days (Lucilia cuprina larvae; [2]): 98%

Structure (SMILES): CCC(C)C(=O)OC1C(C)OC(O[C@@H]2/C(C)=C/C[C@@H]3C[C@@H](CC4(C=C[C@H](C)[C@@H]([C@@H](C)CC)O4)O3)OC(=O)C3C=C(C)[C@@H](O)[C@H]4OC/C(=C\C=C\[C@@H]2C)[C@@]34O)CC1OC (stereo partly shown) [Example 9]
- Kill rate in % after 2 days (Lucilia cuprina larvae; [2]): 100%

Structure (SMILES): CC[C@H](C)[C@H]1OC2(C=C[C@@H]1C)C[C@@H]1C[C@@H](C/C=C(\C)[C@@H](OC3CC(OC)C(OC(=O)Cc4ccsc4)C(C)O3)[C@@H](C)/C=C/C=C3\CO[C@@H]4[C@H](O)C(C)=CC(C(=O)O1)[C@]34O)O2 (stereo partly shown) [Example 12]
- Kill rate in % after 2 days (Lucilia cuprina larvae; [2]): 100%

Structure (SMILES): CC[C@H](C)[C@H]1OC2(C=C[C@@H]1C)C[C@@H]1C[C@@H](C/C=C(\C)[C@@H](OC3CC(OC)C(OC(=O)Cc4cccs4)C(C)O3)[C@@H](C)/C=C/C=C3\CO[C@@H]4[C@H](O)C(C)=CC(C(=O)O1)[C@]34O)O2 (stereo partly shown) [Example 13]
- Kill rate in % after 2 days (adult Musca domestica; 0.8 ppm active compound): 50%

Structure (SMILES): CC[C@H](C)[C@H]1OC2(C=C[C@@H]1C)C[C@@H]1C[C@@H](C/C=C(\C)[C@@H](OC3CC(OC)C(OC(=O)C4(C)CC4)C(C)O3)[C@@H](C)/C=C/C=C3\CO[C@@H]4[C@H](O)C(C)=CC(C(=O)O1)[C@]34O)O2 (stereo partly shown) [Example 15]
- Kill rate in % after 2 days (Lucilia cuprina larvae; [2]): 100%

Structure (SMILES): CC[C@H](C)[C@H]1OC2(C=C[C@@H]1C)C[C@@H]1C[C@@H](C/C=C(\C)[C@@H](OC3CC(OC)C(OC(=O)C4CCCC4)C(C)O3)[C@@H](C)/C=C/C=C3\CO[C@@H]4[C@H](O)C(C)=CC(C(=O)O1)[C@]34O)O2 (stereo partly shown) [Example 16]
- Kill rate in % after 2 days (Lucilia cuprina larvae; [2]): 100%

Structure (SMILES): CC[C@H](C)[C@H]1OC2(CC[C@@H]1C)C[C@@H]1C[C@@H](C/C=C(\C)[C@@H](OC3CC(OC)C(OC(=O)Cn4ccnn4)C(C)O3)[C@@H](C)/C=C/C=C3\CO[C@@H]4[C@H](O)C(C)=CC(C(=O)O1)[C@]34O)O2 (stereo partly shown) [Example 18]
- Kill rate in % after 2 days (Lucilia cuprina larvae; [3]): 100%
- Kill rate in % after 7 days ([1]; Example G): 100%

Structure (SMILES): CC[C@H](C)[C@H]1OC2(C=C[C@@H]1C)C[C@@H]1C[C@@H](C/C=C(\C)[C@@H](OC3CC(OC)C(OC(=O)C(C)(C)n4nc(C)cc4C)C(C)O3)[C@@H](C)/C=C/C=C3\CO[C@@H]4[C@H](O)C(C)=CC(C(=O)O1)[C@]34O)O2 (stereo partly shown) [Example 19]
- Kill rate in % after 2 days (Lucilia cuprina larvae; [3]): 100%

Structure (SMILES): CC[C@H](C)[C@H]1OC2(C=C[C@@H]1C)C[C@@H]1C[C@@H](C/C=C(\C)[C@@H](OC3CC(OC)C(OC(=O)C(C)(C)n4cncn4)C(C)O3)[C@@H](C)/C=C/C=C3\CO[C@@H]4[C@H](O)C(C)=CC(C(=O)O1)[C@]34O)O2 (stereo partly shown) [Example 20]
- Kill rate in % after 2 days (Lucilia cuprina larvae; [2]): 100%
- Kill rate in % after 7 days ([1]; Example D): 80%

Structure (SMILES): CC[C@H](C)[C@H]1OC2(C=C[C@@H]1C)C[C@@H]1C[C@@H](C/C=C(\C)[C@@H](OC3CC(OC)C(OC(=O)Cc4nonc4C)C(C)O3)[C@@H](C)/C=C/C=C3\CO[C@@H]4[C@H](O)C(C)=CC(C(=O)O1)[C@]34O)O2 (stereo partly shown) [Example 25]
- Kill rate in % after 2 days (Lucilia cuprina larvae; [2]): 95%

Structure (SMILES): CC[C@H](C)[C@H]1OC2(C=C[C@@H]1C)C[C@@H]1C[C@@H](C/C=C(\C)[C@@H](OC3CC(OC)C(OC(=O)Cc4c(C)nn(C)c4C)C(C)O3)[C@@H](C)/C=C/C=C3\CO[C@@H]4[C@H](O)C(C)=CC(C(=O)O1)[C@]34O)O2 (stereo partly shown) [Example 26]
- Kill rate in % after 2 days (Lucilia cuprina larvae; [2]): 100%

Structure (SMILES): CC[C@H](C)[C@H]1OC2(C=C[C@@H]1C)C[C@@H]1C[C@@H](C/C=C(\C)[C@@H](OC3CC(OC)C(OC(=O)Cc4sccc4C)C(C)O3)[C@@H](C)/C=C/C=C3\CO[C@@H]4[C@H](O)C(C)=CC(C(=O)O1)[C@]34O)O2 (stereo partly shown) [Example 27]
- Kill rate in % after 2 days (Lucilia cuprina larvae; [2]): 100%

Structure (SMILES): CC[C@H](C)[C@H]1OC2(C=C[C@@H]1C)C[C@@H]1C[C@@H](C/C=C(\C)[C@@H](OC3CC(OC)C(OC(=O)CN(C)C(=O)OC(C)(C)C)C(C)O3)[C@@H](C)/C=C/C=C3\CO[C@@H]4[C@H](O)C(C)=CC(C(=O)O1)[C@]34O)O2 (stereo partly shown) [Example 55]
- Kill rate in % after 2 days (Lucilia cuprina larvae; [2]): 90%
- Kill rate in % after 2 days (adult Musca domestica; 100 ppm active compound): 90%

Structure (SMILES): CCC(C)C1OC2(C=CC1C)CC1CC(CC=C(C)C(OC3CC(OC)C(OC(=O)C4C(C=C(Cl)Cl)C4(C)C)C(C)O3)C(C)C=CC=C3COC4C(O)C(C)=CC(C(=O)O1)C34O)O2 (stereo not shown) [Example 89]
- Kill rate in % after 2 days (adult Musca domestica; 100 ppm active compound): 100%

Structure (SMILES): CCC(C)C1OC2(C=CC1C)CC1CC(CC=C(C)C(OC3CC(OC)C(OC(=O)C(=NOC)c4ccc(Cl)cc4Cl)C(C)O3)C(C)C=CC=C3COC4C(O)C(C)=CC(C(=O)O1)C34O)O2 (stereo not shown) [Example 90]
- Kill rate in % after 2 days (adult Musca domestica; 100 ppm active compound): 100%

Structure (SMILES): CC[C@H](C)[C@H]1OC2(C=C[C@@H]1C)C[C@@H]1C[C@@H](C/C=C(\C)[C@@H](OC3CC(OC)C(OC(=O)Cc4nc(-c5cccs5)sc4C)C(C)O3)[C@@H](C)/C=C/C=C3\CO[C@@H]4[C@H](O)C(C)=CC(C(=O)O1)[C@]34O)O2 (stereo partly shown) [Example 91]
- Kill rate in % after 2 days (adult Musca domestica; 100 ppm active compound): 90%

Structure (SMILES): CC[C@H](C)[C@H]1OC2(C=C[C@@H]1C)C[C@@H]1C[C@@H](C/C=C(\C)[C@@H](OC3CC(OC)C(OC(=O)Cc4ccc(Cl)cc4)C(C)O3)[C@@H](C)/C=C/C=C3\CO[C@@H]4[C@H](O)C(C)=CC(C(=O)O1)[C@]34O)O2 (stereo partly shown) [Example 94]
- Kill rate in % after 2 days (adult Musca domestica; 100 ppm active compound): 80%

Structure (SMILES): CC[C@H](C)[C@H]1OC2(C=C[C@@H]1C)C[C@@H]1C[C@@H](C/C=C(\C)[C@@H](OC3CC(OC)C(OC(=O)C(C)C)C(C)O3)[C@@H](C)/C=C/C=C3\CO[C@@H]4[C@H](O)C(C)=CC(C(=O)O1)[C@]34O)O2 (stereo partly shown) [Example 98, 4′-O-Isobutyryl-avermectin B1 monosaccharide]
- Kill rate in % after 2 days (Lucilia cuprina larvae; [2]): 95%
